Experimental data reported in patent US10870876B2, “Method for detecting a presence or absence of at least one first zone of inhibition” (BIOMÉRIEUX, priority 2015, dated 2020).

What was measured:
[1] = test system: Escherichia coli ATCC 35218; test: Etest strip MIC, deposition of the sample in droplets along the strip; type: cell-based
[2] = test system: Staphylococcus aureus ATCC 25923; test: Disk-diffusion test with ampicillin disk, inoculation by flooding or by droplets along an axis; type: cell-based; conditions: disk containing 10 pig of ampicillin, 0.5 McFarland, 37° C. for 6 hours 30 minutes; similar for flooding and droplets; EUCAST threshold R 18 mm
From the text: A conventional test of sensitivity is the disk-diffusion test, often referred to as the Kirby-Bauer method. This standardized method involves the inoculation of an agar culture medium (for example a 90 mm or 150 mm Mueller-Hinton agar) with a sample, generally standardized to 0.5 McFarland, obtained from a microbial isolate. The inoculation may be performed by conventional manual methods, by means of a swab or a loop. Alternatively, the inoculation may be performed by flooding the agar with a suspension standardized to one tenth of 0.5 McFarland, followed by removal of the excess sample. Following the inoculation, one or more paper disks impregnated with defined concentrations of antibiotics are deposited on the surface of the agar. After an incubation period, generally from 16 to 20 hours at 35° C., the diameter of the zone(s) of inhibition around the disks makes it possible to determine the sensitivity of the microorganism present in the inoculated sample to each of the antimicrobial agents impregnated in each disk. Due to the standardization of the Kirby-Bauer method, the results of this method are analyzed by comparing the diameter of each of the zones of inhibition with the recommendations published by regulatory bodies such as NCCLS (National Committee for Clinical Laboratory Standards) or EUCAST (European Committee on Antimicrobial Susceptibility Testing). […]

| Molecule | MIC ([1]; Table 2, droplet, ATCC 35218, 0.01 McF, 4 H) | MIC ([1]; Table 2, droplet, ATCC 35218, 0.01 McF, 5 H) | MIC ([1]; Table 2, droplet, ATCC 35218, 0.1 McF, 4 H) | MIC ([1]; Table 2, droplet/replicate 2, ATCC 35218, 0.5 McF, 4 H) | diameter D of the zone of inhibition [2] |
| --- | --- | --- | --- | --- | --- |
| gentamicin | 1.3 µg/mL | 1.3 µg/mL | 2 µg/mL | 2 µg/mL |  |
| CC1(C)S[C@@H]2[C@H](NC(=O)[C@H](N)c3ccccc3)C(=O)N2[C@H]1C(=O)O [Ampicillin, ampicillin] |  |  |  |  | 22 mm |
